From ChEMBL document CHEMBL1156829 (Proc Natl Acad Sci U S A, 2008) come the findings set out here.

Structures are written as SMILES. Values joined by “and” are separate entries in the source; they are usually repeats but may differ in a detail not shown here. Equal entries are not always repeated. Some results are limits rather than exact numbers.

By EC50 is commonly meant the midpoint of the concentration-response curve. One may read the CC50 as the concentration at which the toxic effect on the cells reaches its halfway point.

The test system of data set [1] is Plasmodium falciparum. Put plainly: NOVARTIS: Inhibition of Plasmodium falciparum W2 (drug-resistant) proliferation in erythrocyte-based infection assay. The note with it: read-out: EC50. Format: functional, organism-based.
Data set [2] can be described thus: NOVARTIS: Cytotoxicity against human hepatocellular carcinoma cell line (Huh7). Type of data set: toxicity, cell-based, Huh-7. Particulars: Huh7 cells (hepatocellular carcinoma cell line).
The subject of data set [3] is Plasmodium falciparum. Nature of the data set: NOVARTIS: Inhibition of Plasmodium falciparum 3D7 (drug-susceptible) proliferation in erythrocyte-based infection assay. Type of data set: functional, organism-based.

Consider `CCOC(=O)C1=C(C)N=c2sc(=Cc3cc(Cl)ccc3O)c(=O)n2C1c1ccc(OC)c(OC)c1` (centres undefined), for which the EC50 in data set [1] is 1440 nM and 264 nM. This compound gave a CC50 in data set [2] above 100000 nM.

In turn, `Cc1cc(Nc2ccc(C)c(F)c2)n2nc(C)nc2n1` came in with an EC50 in data set [3] (Plasmodium falciparum, 3D7) of 1040 nM. Moreover, in data set [2], the CC50 is above 100000 nM.

With `COC(=O)c1ccc(C2C3=C(O)CC(c4ccco4)CC3=Nc3ccccc3N2C(=O)c2ccccc2)cc1` (centres undefined), the EC50 in data set [3] was found to be 579 nM; in data set [3] (Plasmodium falciparum, 3D7) it was 387 nM. Further, the CC50 in data set [2] was above 100000 nM.

On to `CCOC(=O)c1cnc2ccc(OC)cc2c1O`, for which the EC50 is 727 nM and 245 nM in data set [3]; 1300 nM in data set [1] (Plasmodium falciparum, W2); 721 nM in data set [1]. In data set [2], the CC50 was above 100000 nM.

Regarding `Cc1ccc(C=Cc2ccc(N(C)C)cc2)[n+](C)c1`, the values for the EC50 in data set [3] and in data set [1] were 397 nM and 400 nM, respectively. This compound also yielded a CC50 in data set [2] above 60500 nM.

Take `CC1=C[C@H]2O[C@@H]3C[C@H]4OC(=O)C=CC=C[C@H]([C@@H](C)O)OCC[C@@H](C)[C@H](O)C(=O)OC[C@@]2(CC1)[C@]4(C)[C@@]31CO1`: the EC50 in data set [3] and in data set [1] was below 0.572 nM in each case. Besides, the CC50 in data set [2] is 6.04 nM.

For the compound `COc1cccc2c1C(=O)c1c(O)c3c(c(O)c1C2=O)C[C@](O)(C(C)=O)C[C@@H]3O[C@H]1C[C@@H](N)[C@H](O)[C@H](C)O1`, the EC50 worked out at 308 nM in data set [3] (Plasmodium falciparum, 3D7) and 213 nM in data set [1] (Plasmodium falciparum, W2). This compound gave a CC50 in data set [2] of 129 nM.

With `CN(C=Cc1sc2ccc3ccccc3c2[n+]1C)c1ccccc1`, the values for the EC50 in data set [3] and in data set [1] were 239 nM and 153 nM, respectively. Moreover, half-maximal cytotoxicity in data set [2] (CC50) was put at 64300 nM.

On to `O=C(NCCC1=CCCCC1)c1ccc2c(=O)n(-c3ccccc3)c(SCc3nc4ccccc4[nH]3)nc2c1`, for which the EC50 is above 1250 nM in data set [3] (Plasmodium falciparum, 3D7) and 1460 nM in data set [1] (Plasmodium falciparum, W2). Besides, in data set [2], the CC50 is above 912 nM.

As for `CC(C)CN1C(=O)c2ccccc2C(C(=O)Nc2ccccn2)C1c1cccs1` (centres undefined), the CC50 in data set [2] is above 100000 nM.

Regarding `c1ccc(CSc2nnc3c(n2)[nH]c2ccccc23)cc1`, the EC50 in data set [3] was above 1060 nM; in data set [3] (Plasmodium falciparum, 3D7) it was 1300 nM; in data set [1] (Plasmodium falciparum, W2), 1320 nM; in data set [1] it was above 748 nM. In data set [2], this compound gave a CC50 above 10000 nM.

Consider `COc1ccc(CN2CCC(Sc3ncccn3)CC2)cc1`, for which the EC50 is above 1440 nM in data set [3] (Plasmodium falciparum, 3D7) and 950 nM in data set [1] (Plasmodium falciparum, W2). For the same compound, the CC50 in data set [2] is 702 nM.

`CN(C)c1ccc(C=C2SC(=Nc3ccccc3)NC2=O)cc1`: the EC50 in data set [3] (Plasmodium falciparum, 3D7) came out at 27.1 nM. This compound came in with a CC50 in data set [2] above 74400 nM.

As for `CC[n+]1cc(C)ccc1C=Cc1ccc(N(C)C)cc1`, the EC50 in data set [3] was determined as 195 nM; in data set [1] it was 232 nM. Besides, it took 15200 nM to reach half-maximal cytotoxicity in data set [2] (CC50).

Consider `CN[C@H]1C[C@@H]2O[C@](C)([C@H]1O)n1c3ccccc3c3c4c(c5c6ccccc6n2c5c31)C(=O)NC4`, for which the EC50 in data set [3] (Plasmodium falciparum, 3D7) was 55.4 nM; in data set [1] (Plasmodium falciparum, W2) it was 52.1 nM. In addition, in data set [2], the CC50 came out at 32.3 nM.

As for `CC(C)CC[n+]1ccccc1C=Cc1ccc(N(C)C)cc1`, the results for the EC50 in data set [3] and in data set [1] were 82.9 nM and 150 nM, respectively. Also, in data set [2], the CC50 was above 30000 nM.

Regarding `CC1=CC[C@@H](/C(C)=C/c2csc(C)n2)OC(=O)C[C@H](O)C(C)(C)C(=O)[C@H](C)[C@@H](O)[C@@H](C)CCC1`, the EC50 turned out to be 85.4 nM in data set [3] (Plasmodium falciparum, 3D7) and 25.8 nM in data set [1] (Plasmodium falciparum, W2). The compound further showed a CC50 in data set [2] of 6.21 nM.

Regarding `CCN(CC)c1ccc(/C=C(/C#N)c2nc3ccccc3[nH]2)o1`, the EC50 in data set [3] (Plasmodium falciparum, 3D7) was above 1250 nM; in data set [1] (Plasmodium falciparum, W2) it was above 702 nM. The compound further gave a CC50 in data set [2] above 333 nM.

For the compound `Cn1cc(/C=C/c2cc[n+](C)cc2)c2ccccc21`, the EC50 in data set [3] came to 92.8 nM; in data set [1] (Plasmodium falciparum, W2), 314 nM. For the same compound, in data set [2], the CC50 was above 8990 nM.

`Cc1cc(/C=C2\SC(=Nc3ccccc3)N(C3CCCCC3)C2=O)c(C)n1-c1ccc(F)cc1`: the EC50 in data set [1] (Plasmodium falciparum, W2) stood at 383 nM; in data set [1] it was 680 nM. This compound also registered a CC50 in data set [2] above 100000 nM.

As to `Nc1nc(N)c2cc(S(=O)(=O)N3CCOCC3)ccc2n1`, the EC50 in data set [3] (Plasmodium falciparum, 3D7) was 62.6 nM; in data set [1] (Plasmodium falciparum, W2), above 12500 nM. The compound further yielded a CC50 in data set [2] of 5050 nM.

On to `O=C(Cc1cccnc1)N1CCC(Oc2ccncc2)CC1`, for which the EC50 in data set [3] (Plasmodium falciparum, 3D7) was 626 nM; in data set [1] (Plasmodium falciparum, W2), 141 nM. Besides, the CC50 in data set [2] is 104 nM.

For the compound `CC(C)CC(N)C(=O)NCCCNc1nsc2ccccc12` (centres undefined), the EC50 in data set [3] (Plasmodium falciparum, 3D7) was 2820 nM; in data set [1] (Plasmodium falciparum, W2), above 12100 nM. For the same compound, the 50% cytotoxic concentration (CC50) in data set [2] was found to be 15900 nM.

As for `CC[C@H](C)C[C@H]1CC[C@](O)([C@](C)(O)C(=O)N[C@@H]2C(=O)N3NCCC[C@@H]3C(=O)N(O)[C@@H](C)C(=O)NCC(=O)N3NCCC[C@H]3C(=O)N(O)[C@H](C)C(=O)O[C@H]2C(C)C)O[C@@H]1C`, the EC50 in data set [3] (Plasmodium falciparum, 3D7) stood at 438 nM; in data set [1] (Plasmodium falciparum, W2), 567 nM. It took 465 nM to reach half-maximal cytotoxicity in data set [2] (CC50).

For the compound `CN(C)c1cc[n+](Cc2c(Cl)cccc2Cl)cc1`, the EC50 was determined as 140 nM in data set [3] (Plasmodium falciparum, 3D7) and 598 nM in data set [1] (Plasmodium falciparum, W2). This compound showed a CC50 in data set [2] of 642 nM.

On to `CC(=O)Nc1ccc2c(c1)C(=O)N(C(C(=O)NCc1ccccc1)C1CCCCC1)[C@@H](Cc1ccc(O)cc1)C(=O)N2` (some centres undefined), for which the EC50 in data set [3] (Plasmodium falciparum, 3D7) was found to be 807 nM; in data set [1] (Plasmodium falciparum, W2), 555 nM. Moreover, it took 659 nM to reach half-maximal cytotoxicity in data set [2] (CC50).

Turning to `COC(=O)c1ccc(C2C3=C(O)CC(c4ccc(C)cc4)CC3=Nc3ccccc3N2C(=O)c2cccs2)cc1` (centres undefined), the EC50 in data set [3] is 328 nM and 88 nM; in data set [1], 808 nM and 264 nM. In data set [2], the CC50 was above 100000 nM.
